For the experiment, the target named is T1, human HDAC3/SMRT heterodimer (Homo sapiens, UniProt O15379).
T1 construct: Full length human HDAC3-FLAG was expressed in HEK-293F cells along with SMRT; host or cells: HEK-293F cells
The experiment in a line: Human HDAC enzyme inhibitor Fluor-de-Lys assay, HDAC3/SMRT. The format is biochemical. Conditions: HDAC3/SMRT 0.3 nM enzyme, 20 μM substrate BML-KI104, 10 μM IP4, 3 h pre-incubation, 60 min reaction; read-out: HDAC3_IC50. From the text:
Recombinant human HDAC8 (catalog number BML-SE145-0100) and HDAC10 (catalog number BML-SE559-0050) enzymes, HDAC substrates BML-KI104 and BML-KI178, and HDAC developer solutions BML-KI105 and BML-KI176 were purchased from Enzo Life Sciences (Farmingdale, NY). Recombinant human HDAC5 and HDAC11 were purchased from BPS Bioscience (San Diego, CA)(catalog numbers 50045 and 50021). Substrate Boc-Lys(TFA)-AMC was obtained from Bachem (Bupendorf, Switzerland) (catalog number 1-1985). HDAC inhibitor suberoylanilide hydroxamic acid (SAHA) was obtained from Indofine (Hillsborough Township, NJ) and trichostatin A (TSA) was obtained from Sigma-Aldrich (St. Louis, MO). […] HEPES pH 8.0 was obtained from Boston BioProducts (Ashland, MA), Tween-20 from Fisher Scientific (Hampton, NH)(catalog number BP337), TCEP from Calbiochem and 7.5% bovine serum albumin (BSA) from Life Technologies (Carlsbad, CA) (catalog number 15260037). 384-well, black assay plates were obtained from Corning (Corning, NY) (catalog number 3575).
Recombinant human HDAC1, HDAC2, and HDAC3/SMRT heterodimer were prepared by Merck Research Laboratories. […] The eluted protein was then passed over an anti-HDAC1 immunoaffinity column to remove any complexes containing HDAC1. […]
The histone deacetylase activities of HDAC1, HDAC2, HDAC3, HDAC6, and HDAC8 were measured in modified Fluor-de-Lys assays in 384-well format. In this assay, HDAC enzymes are initially incubated with an ε-acetyl (or -trifluoroacetyl)-L-lysine-containing substrate with a C-terminal amide having aminomethylcoumarin as the amine component. HDACs cleave the ε-acetyl group, rendering the resulting product susceptible to AMC cleavage by trypsin. The released AMC is then detected by its fluorescence.
The HDAC 1, 2 assays employed buffer A, which contained 20 mM HEPES, pH 8.0, 1 mM MgCl2, 137 mM NaCl, 2.7 mM KCl, 0.05% BSA. The HDAC3/SMRT assay employed buffer B, consisting of 20 mM HEPES, pH 8.0, 1 mM MgCl2, 50 mM NaCl, 2.7 mM KCl, 0.05% BSA, 0.005% Tween 20, and 10 μM IP4. The HDAC6 assay employed buffer C, consisting of 20 mM HEPES, pH 8.0, 1 mM MgCl2, 137 mM NaCl, 2.7 mM KCl, 0.5 mM TCEP (Calbiochem) and 0.05% BSA. The HDAC8 assay employed buffer D, consisting of 20 mM HEPES, pH 8.0, 1 mM MgCl2, 100 mM NaCl, 20 mM KCl, 0.1% n-octyl-β-D-glucoside (Anatrace, Maumee, OH) and 0.05% BSA. All steps were performed at room temperature (23° C.). The assay was performed by pre-incubating serial dilutions of test compounds with the target HDAC prior to initiation with substrate. Each compound was titrated in a 10-point dose response, using a 1:3 fold dilution scheme, with 0.15 ul of solution added by ECHO555 to the plate, followed by the addition of 20 μl of the appropriate HDAC isoform diluted in appropriate assay buffer. […] Final conditions used for each assay were: 1. HDAC 1, 0.3 nM total enzyme, 20 μM substrate BML-K1104; 2. HDAC 2, 1.5 nM total enzyme, 40 μM substrate BML-K1104; 3. HDAC 3/SMRT, 0.3 nM total enzyme, 20 μM substrate BML-K1104; 4. HDAC 6, 1.3 nM total enzyme, 2.5 μM substrate BML-K1104; 5. HDAC 8, 1.3 nM total enzyme, 200 μM substrate BML-K1178; the final high dose of test compound was 30 μM. […] The reactions were stopped and developed by addition of 30 ul of HDAC developer solution containing a saturating level of HDAC inhibitor as follows: 1.

Each structure is given as a SMILES string.

T1 sequence (O15379 whole entry): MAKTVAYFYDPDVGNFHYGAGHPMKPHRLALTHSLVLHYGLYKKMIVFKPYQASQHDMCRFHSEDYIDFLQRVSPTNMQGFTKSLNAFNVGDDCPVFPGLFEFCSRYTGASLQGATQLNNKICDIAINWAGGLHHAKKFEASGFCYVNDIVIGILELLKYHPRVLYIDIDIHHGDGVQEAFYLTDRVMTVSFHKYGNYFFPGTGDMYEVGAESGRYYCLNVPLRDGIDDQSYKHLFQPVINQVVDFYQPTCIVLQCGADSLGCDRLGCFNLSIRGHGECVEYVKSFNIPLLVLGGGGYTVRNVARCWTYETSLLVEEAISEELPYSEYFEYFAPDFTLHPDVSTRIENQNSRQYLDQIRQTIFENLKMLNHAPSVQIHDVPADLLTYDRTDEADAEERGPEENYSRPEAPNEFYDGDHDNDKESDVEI
T1 sequence (Q9Y618 1-899 partner limits assumed): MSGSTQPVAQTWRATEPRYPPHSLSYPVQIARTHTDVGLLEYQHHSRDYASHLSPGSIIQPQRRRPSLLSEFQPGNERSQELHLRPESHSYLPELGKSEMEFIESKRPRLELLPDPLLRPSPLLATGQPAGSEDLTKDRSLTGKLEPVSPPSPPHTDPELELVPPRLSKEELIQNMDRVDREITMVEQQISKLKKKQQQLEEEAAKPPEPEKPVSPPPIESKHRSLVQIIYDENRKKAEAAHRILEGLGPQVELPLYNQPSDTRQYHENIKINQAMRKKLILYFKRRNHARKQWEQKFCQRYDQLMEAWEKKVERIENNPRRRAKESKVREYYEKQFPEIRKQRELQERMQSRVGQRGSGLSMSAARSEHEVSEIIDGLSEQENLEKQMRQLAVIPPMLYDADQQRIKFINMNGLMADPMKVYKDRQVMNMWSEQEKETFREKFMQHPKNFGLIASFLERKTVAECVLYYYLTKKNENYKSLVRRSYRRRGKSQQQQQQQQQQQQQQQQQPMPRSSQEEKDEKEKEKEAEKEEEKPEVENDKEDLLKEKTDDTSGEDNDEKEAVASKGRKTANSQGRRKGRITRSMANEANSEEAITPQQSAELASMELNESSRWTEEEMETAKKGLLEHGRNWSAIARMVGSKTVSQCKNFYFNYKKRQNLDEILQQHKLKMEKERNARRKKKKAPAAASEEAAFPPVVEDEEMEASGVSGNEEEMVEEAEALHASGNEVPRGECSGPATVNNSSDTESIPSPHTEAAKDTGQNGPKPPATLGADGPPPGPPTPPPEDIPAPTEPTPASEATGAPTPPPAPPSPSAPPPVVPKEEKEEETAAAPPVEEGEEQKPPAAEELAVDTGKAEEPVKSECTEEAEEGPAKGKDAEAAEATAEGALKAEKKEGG

As to `COc1nc2ccccc2cc1-c1cnc([C@@H](N)COCCCC(=O)c2ncco2)[nH]1` [Compound 1, (R)-4-(2-amino-2-(5-(2-methoxyquinolin-3-yl)-1H-imidazol-2-yl)ethoxy)-1-(oxazol-2-yl)butan-1-one], the IC50 is 185 nM.

For the compound `N[C@@H](COCCCC(=O)c1ccon1)c1ncc(-c2ccccc2F)[nH]1` [Compound 2, (R)-4-(2-amino-2-(5-(2-fluorophenyl)-1H-imidazol-2-yl)ethoxy)-1-(isoxazol-3-yl)butan-1-one], the IC50 was 272 nM.

On to `CCC(=O)CCCOC[C@H](NC(=O)C12CCN(CC1)CC2)c1ncc(-c2cc3ccccc3nc2OC)[nH]1` [Compound 6, N-{(1R)-1-[5-(2-methoxyquinolin-3-yl)-1H-imidazol-2-yl]-2-[(4-oxohexyl)oxy]ethyl}-1-azabicyclo[2.2.2]octane-4-carboxamide], for which the IC50 was 87.3 nM.

For `CNC(=O)C(=O)CCCOC[C@H](NC(=O)c1cncs1)c1ncc(-c2cc3ccccc3nc2OC)[nH]1` [Compound 8, N-[(1R)-1-[5-(2-methoxyquinolin-3-yl)-1H-imidazol-2-yl]-2-{[5-(methylamino)-4,5-dioxopentyl]oxy}ethyl]-1,3-thiazole-5-carboxamide], the IC50 came to 1.5 nM.

`CNC(=O)C(=O)CCCOC[C@H](NC(=O)C12CCN(CC1)CC2)c1ncc(-c2cc3ccccc3nc2OC)[nH]1` [Compound 9, N-[(1R)-1-[5-(2-methoxyquinolin-3-yl)-1H-imidazol-2-yl]-2-{[5-(methylamino)-4,5-dioxopentyl]oxy}ethyl]-1-azabicyclo[2.2.2]octane-4-carboxamide]: the IC50 came out at 1.5 nM.

Take `COc1nc2ccccc2cc1-c1cnc([C@H](COCCCC(=O)c2ncco2)NC(=O)c2cncs2)[nH]1` [Compound 10, N-{(1R)-1-[5-(2-methoxyquinolin-3-yl)-1H-imidazol-2-yl]-2-[4-(1,3-oxazol-2-yl)-4-oxobutoxy]ethyl}-1,3-thiazole-5-carboxamide]: the IC50 was 3.6 nM.

As to `COc1nc2ccccc2cc1-c1cnc([C@H](COCCCC(=O)c2ncco2)NC(=O)[C@H]2CC23CCN(C)CC3)[nH]1` [Compound 11, (1S)-N-{(1R)-1-[5-(2-methoxyquinolin-3-yl)-1H-imidazol-2-yl]-2-[4-(1,3-oxazol-2-yl)-4-oxobutoxy]ethyl}-6-methyl-6-azaspiro[2.5]octane-1-carboxamide], the IC50 was 5 nM.

Take `COc1nc2ccccc2cc1-c1cnc([C@H](COCCCC(=O)c2ncco2)NC(=O)C23CCN(CC2)CC3)[nH]1` [Compound 12, N-{(1R)-1-[5-(2-methoxyquinolin-3-yl)-1H-imidazol-2-yl]-2-[4-(1,3-oxazol-2-yl)-4-oxobutoxy]ethyl}-1-azabicyclo[2.2.2]octane-4-carboxamide]: the IC50 stood at 7.7 nM.

With `COc1nc2ccccc2cc1-c1cnc([C@H](COCCCC(=O)c2ncco2)NC(=O)CN(C)C)[nH]1` [Compound 13, N-{(1R)-1-[5-(2-methoxyquinolin-3-yl)-1H-imidazol-2-yl]-2-[4-(1,3-oxazol-2-yl)-4-oxobutoxy]ethyl}-N~2~,N~2~- dimethylglycinamide], the IC50 amounted to 3.8 nM.

As for `COc1nc2ccccc2cc1-c1cnc([C@H](COCCCC(=O)c2ccon2)NC(=O)CN(C)C)[nH]1` [Compound 14, N-{(1R)-2-(4-isoxazol-3-yl-4-oxobutoxy)-1-[5-(2-methoxyquinolin-3-yl)-1H-imidazol-2-yl]ethyl}-N~2~,N~2~- dimethylglycinamide], the IC50 worked out at 2.2 nM.

`CN1CC(C(=O)N[C@@H](COCCCC(=O)c2ccon2)c2ncc(-c3ccccc3F)[nH]2)C1` [Compound 15, N-[(1R)-1-[5-(2-fluorophenyl)-1H-imidazol-2-yl]-2-(4-isoxazol-3-yl-4-oxobutoxy)ethyl]-1-methylazetidine-3-carboxamide]: the IC50 was determined as 1.6 nM.

As to `CN1CC(C(=O)N[C@@H](COCCCC(=O)c2ccon2)c2[nH]c(-c3ccc(F)cc3)nc2Cl)C1` [Compound 16, N-[(1R)-1-[4-chloro-2-(4-fluorophenyl)-1H-imidazol-5-yl]-2-(4-isoxazol-3-yl-4-oxobutoxy)ethyl]-1-methylazetidine-3-carboxamide], the IC50 was found to be 9.2 nM.

With `CN(C)CC(=O)N[C@@H](COCCCC(=O)c1ccon1)c1[nH]c(-c2ccc(F)cc2)nc1Cl` [Compound 17, N-[(1R)-1-[4-chloro-2-(4-fluorophenyl)-1H-imidazol-5-yl]-2-(4-isoxazol-3-yl-4-oxobutoxy)ethyl]-N~2~,N~2~- dimethylglycinamide], the IC50 amounted to 17 nM.

On to `CN1CCC2(CC1)C[C@@H]2C(=O)N[C@@H](COCCCC(=O)c1ccon1)c1[nH]c(-c2ccc(F)cc2)nc1Cl` [Compound 18, (1S)-N-[(1R)-1-[4-chloro-2-(4-fluorophenyl)-1H-imidazol-5-yl]-2-(4-isoxazol-3-yl-4-oxobutoxy)ethyl]-6-methyl-6-azaspiro[2.5]octane-1-carboxamide], for which the IC50 came out at 1.3 nM.

With `COc1cc2nc(C)ccc2cc1-c1cnc([C@H](COCCCC(=O)c2cc(C)on2)NC(=O)C2CN(C)C2)[nH]1` [Compound 19, N-{(1R)-1-[5-(7-methoxy-2-methylquinolin-6-yl)-1H-imidazol-2-yl]-2-[4-(5-methylisoxazol-3-yl)-4-oxobutoxy]ethyl}-1-methylazetidine-3-carboxamide], the IC50 was 1.3 nM.

On to `COc1cc2nc(C)ccc2cc1-c1cnc([C@H](COCCCC(=O)c2cc(C)on2)NC(=O)[C@H]2CC23CCN(C)CC3)[nH]1` [Compound 20, (1S)-N-{(1R)-1-[5-(7-methoxy-2-methylquinolin-6-yl)-1H-imidazol-2-yl]-2-[4-(5-methylisoxazol-3-yl)-4-oxobutoxy]ethyl}-6-methyl-6-azaspiro[2.5]octane-1-carboxamide], for which the IC50 came out at 0.8 nM.

With `Cc1ccc2cc(-c3cnc([C@H](CSCCCC(=O)c4ncco4)NC(=O)[C@H]4CC45CCN(C)CC5)[nH]3)ccc2n1` [Compound 21, (1S)-6-methyl-N-[(1R)-1-[5-(2-methylquinolin-6-yl)-1H-imidazol-2-yl]-2-{[4-(1,3-oxazol-2-yl)-4-oxobutyl]sulfanyl}ethyl]-6-azaspiro[2.5]octane-1-carboxamide], the IC50 turned out to be 1.5 nM.

Values taken from patent US12365674B2, “Inhibitors of histone deacetylase useful for the treatment or prevention of HIV infection” (Merck Sharp & Dohme LLC, priority 2019, dated 2025).
